# Where two headings read alike, the source gives them in different places.
# What was measured:
# [1] = test system: C. auris AR Bank #0390 (strain L); test: Time-kill assay; type: cell-based, Candida auris; conditions: 1×MIC
# [2] = test system: murine and human red blood cells (RBCs)
# Experimental: The RBCs were resuspended in PBS to achieve a cell concentration of on the order of 10^7 cells/mL. Compounds were dissolved at concentration of 3.14 mg/mL (200×) in DMSO. Serial double dilutions were made in DMSO. A 1:100 dilution of compound in PBS was added to 100 of RBCs in a 96-well plate (total volume of 200 μL). Compounds were tested in the range of 0.06-15.6 μg/mL in quadruplicate with 0.5% DMSO and ˜5×10^6 RBCs per tube. The RBCs were also treated with 1% Triton-X® (positive control) and PBS (negative control). The RBCs were treated for 30 min at 37° C. and the absorbance was read at 595 nm. Hemolysis is visually observed by a decrease in optical density of the wells (turbid, dark red to transparent pink). Percent hemolysis (FIG. 5A-B) was calculated using this equation after subtraction of the background absorbance ([…]): […]
# Candida biofilms = conditions: FDA-approved antifungal agents; cited from earlier work
# patients = conditions: 6 mg daily dose, oral; cited from earlier work
# [3] = test system: Candida strains B, H, K and L; conditions: for mode of killing (time-kill): 1× and 2×MIC, 24 h; for decrease of fungal colony forming units (CFU): by the 3 h time point, no increase over 24 h
# Experimental: The protocol for time-kill assays followed methods previously described with minor modifications.^34,90 Overnight cultures were grown in YEPD medium at 35° C. with shaking at 200 rpm. The overnight cultures were diluted in RPMI 1640 medium to an OD600 of 0.125 (˜x10^6 CFU/mL). Then, 200 μL of cells were added to 4.8 mL of RPMI 1640 medium in sterile culture tubes to afford a fungal cell concentration ˜1×10^5 CFU/mL. Compounds were then added to the fungal cells. […] Treated fungal cultures were incubated in the culture tubes at 35° C. with 200 rpm shaking for 24 h. Samples were aliquoted from the different treatments at regular time points (0, 3, 6, 9, 12, and 24 h) and plated in duplicate onto PDA plates. For each time point, cultures were vortexed, 100 μL of culture was aspirated, and 10-fold serial dilutions were made in sterile ddH2O. From the appropriate dilutions, 100 μL of fungal suspension was spread on agar plates and incubated at 35° C. for 48 h before colony counts were determined. Only plates containing between 30 and 300 colonies were counted, making 30 CFU/mL the limit of detection. At 24 h, 50 μL of sterile 2 mM resazurin in phosphate buffered saline (PBS) was added to the treatments and incubated at 35° C. with 200 rpm shaking for 2 h in the dark for visual inspection.
# [4] = test system: C. albicans ATCC 10231 (strain B)
# Experimental: (§1) The protocol for time-kill assays followed methods previously described with minor modifications.^34,90 Overnight cultures were grown in YEPD medium at 35° C. with shaking at 200 rpm. The overnight cultures were diluted in RPMI 1640 medium to an OD600 of 0.125 (˜x10^6 CFU/mL). Then, 200 μL of cells were added to 4.8 mL of RPMI 1640 medium in sterile culture tubes to afford a fungal cell concentration ˜1×10^5 CFU/mL. Compounds were then added to the fungal cells. […] Treated fungal cultures were incubated in the culture tubes at 35° C. with 200 rpm shaking for 24 h. Samples were aliquoted from the different treatments at regular time points (0, 3, 6, 9, 12, and 24 h) and plated in duplicate onto PDA plates. For each time point, cultures were vortexed, 100 μL of culture was aspirated, and 10-fold serial dilutions were made in sterile ddH2O. From the appropriate dilutions, 100 μL of fungal suspension was spread on agar plates and incubated at 35° C. for 48 h before colony counts were determined. Only plates containing between 30 and 300 colonies were counted, making […] the limit of detection. At 24 h, 50 μL of sterile 2 mM resazurin in phosphate buffered saline (PBS) was added to the treatments and incubated at 35° C. with 200 rpm shaking for 2 h in the dark for visual inspection.
# [5] = test system: C. auris AR Bank #0384 (strain K)
# Experimental: as §1
# Candida spp. biofilms = conditions: biofilms of Candida spp.
# Experimental: For assays with a pre-formed biofilm, 100 μL of fungal cells were aliquoted in a 96-well plate, leaving one column empty for the sterile control. After 24 h incubation at 37° C., visible biofilms had formed in the well. The biofilm was washed three times with 100 μL of PBS. […] Plates were incubated at 37° C. for 24 h. Finally, the plates were washed three times with PBS before adding 100 μL of XTT dye. The XTT was prepared by dissolving XTT at 0.5 mg/mL concentration in sterile PBS. Before adding to a plate, 1 μL of 10 mM menadione in acetone was added to 10 mL of the 0.5 mg/mL solution of XTT. After addition of XTT (containing menadione), the plates were incubated for 3 h at 37° C. in the dark. 80 μL of liquid from each well was transferred to a new plate and then with the plate reader for absorbance at 450 nm. For these experiments, we determined the sessile MIC (SMIC90), which is defined as the compound concentration required to inhibit the metabolic activity of biofilm by 90% compared to the growth control (Table 3). […] Each assay was performed in duplicate.
# [6] = test system: C. albicans ATCC 10231 (strain B); conditions: subcultures exposed to ½ MIC
molecule,measurement,setting,value
"C[C@@H]1[C@H](O)[C@@H](C)/C=C/C=C/C=C/C=C/C=C/C=C/C=C/[C@H](O[C@@H]2O[C@H](C)[C@@H](O)[C@H](N)[C@@H]2O)C[C@@H]2O[C@](O)(C[C@@H](O)C[C@@H](O)[C@H](O)CC[C@@H](O)C[C@@H](O)CC(=O)O[C@H]1C)C[C@H](O)[C@H]2C(=O)O [AmB, amphotericin B, reference compound]",time at which the limit of detection was reached,[1],9 h
same,hemolysis,[2]; at 7.8 μg/mL,30-60%
same,hemolysis,[2]; at 15.6 μg/mL,100%
same,SMIC90 (literature),Candida biofilms,0.5 to 128 µg/mL
"CC(=O)OC[C@H]1O[C@@H]([S-])[C@H](OC(C)=O)[C@@H](OC(C)=O)[C@@H]1OC(C)=O.CCP(CC)CC.[Au+] [Auranofin, auranofin, reference compound]",hemolytic activity,[2]; at 15.6 μg/mL,no hemolytic activity
same,tolerability in patients,patients,well-tolerated
"bis-[1,2-bis[(2R,5R)-2,5-dimethylfphospholano]benzene]gold(1) [Compound 6]",mode of killing (time-kill),[3],fungicidal
same,decrease of fungal colony forming units (CFU),[3],102 CFU/mL
same,time at which the limit of detection was reached,[4]; 2×MIC,3 h
same,time at which the limit of detection was reached,[5]; 1×MIC,6 h
same,activity against biofilms,Candida spp. biofilms,good activity
same,changes in MIC values over fifteen serial passages,[6],no significant changes in MIC values
"bis-[1,2-bis[(2S,5S)-2,5-dimethylphospholano]benzene]gold(I) [Compound 4]",mode of killing (time-kill),[3],fungicidal
same,decrease of fungal colony forming units (CFU),[3],102 CFU/mL
same,time at which the limit of detection was reached,"[4]; 1×MIC, limit of detection 30 CFU/mL",9 h
same,time at which the limit of detection was reached,"[5]; concentration not specified (tested at 1× and 2×MIC), failed to reach the limit",> 24 h
same,activity against biofilms,Candida spp. biofilms,good activity
same,changes in MIC values over fifteen serial passages,[6],no significant changes in MIC values
